According to patent US20070015823A1, “Ambruticin VS compounds” (priority 2004, published 2007):
Converted amounts (≈) assume the structure as drawn. Read-outs that look alike come from different tables or passages of the source.

Tests used:
[1] = system: Trichophyton interdigitale; assay: Dermatophyte broth microdilution, NCCLS M38-A; format: cell-based
Microsporum canis = assay: Dermatophyte broth microdilution, NCCLS M38-A; format: cell-based
Epidermophyton floccosum = assay: Dermatophyte broth microdilution, NCCLS M38-A; format: cell-based
A. fumigatus ATCC 204305 = assay: Broth microdilution antifungal susceptibility, NCCLS M38-A; format: cell-based, Aspergillus fumigatus; settings: minimal concentration inhibiting >95% growth; average of at least two assays (except I-l and I-x)
Trichophyton rubrum = assay: Dermatophyte broth microdilution, NCCLS M38-A; format: cell-based
A. flavus ATCC 204304 = assay: Broth microdilution antifungal susceptibility, NCCLS M38-A; format: cell-based, Aspergillus flavus; settings: minimal concentration inhibiting >95% growth; average of at least two assays (except I-l and I-x)
Microsporum gypseum = assay: Dermatophyte broth microdilution, NCCLS M38-A; format: cell-based
[2] = system: Trichophyton mentagrophytes; assay: Dermatophyte broth microdilution, NCCLS M38-A; format: cell-based
Histoplasma capsulatum = format: cell-based
Blastomyces dermatitidis = assay: Broth microdilution antifungal susceptibility, NCCLS M38-A; format: cell-based
Cryptococcus neoformans = assay: as above; settings: 50% growth inhibition, range = minimum and maximum of multiple assays; for MIC C. neoformans 97-14: strain 97-14; for MIC C. neoformans 11239: strain 11239; for MIC C. neoformans 11240: strain 11240
C. immitis = assay: microbe, parasite or virus in culture; format: cell-based, Coccidioides immitis

SMILES | MIC0 Ti [1] [µg/mL] | MIC0 Mc (Microsporum canis) [µg/mL] | MIC0 Ef (Epidermophyton floccosum) [µg/mL] | MIC0 A. fumigatus ATCC 204305 (A. fumigatus ATCC 204305) [µg/mL] | MIC0 Tr (Trichophyton rubrum) [µg/mL] | MIC0 A. flavus ATCC 204304 (A. flavus ATCC 204304) [µg/mL] | MIC0 Mg (Microsporum gypseum) [µg/mL] | MIC0 Tm [2] [µg/mL] | MIC H. capsulatum G217B (Histoplasma capsulatum) [µg/mL] | MIC H. capsulatum GS20 (Histoplasma capsulatum) [µg/mL] | MIC B. dermatitidis Gu (Blastomyces dermatitidis) [µg/mL] | MIC B. dermatitidis Kr (Blastomyces dermatitidis) [µg/mL] | MIC B. dermatitidis V (Blastomyces dermatitidis) [µg/mL] | MIC C. neoformans 97-14 (Cryptococcus neoformans) [µg/mL] | MIC C. neoformans 11239 (Cryptococcus neoformans) [µg/mL] | MIC C. neoformans 11240 (Cryptococcus neoformans) [µg/mL] | further results
CC[C@H]1O[C@@H](/C(C)=C/[C@H](C)/C=C/[C@H]2[C@@H](C)[C@@H]2/C=C/[C@@H]2O[C@H](CC(=O)O)C[C@H](N(C)C)[C@H]2O)CCC1C (stereo partly shown) [IV-b, 20,21-dihydro ambruticin VS-3] | 2.51 | 1.41 | 1.41 | 0.88 | 2.51 | 0.44 | 1.25 | 4 | – | – | – | – | – | – | – | – | –
CC[C@H]1O[C@@H](/C(C)=C/[C@H](C)/C=C/[C@H]2[C@@H](C)[C@@H]2/C=C/[C@@H]2O[C@H](CC(=O)O)C[C@H](N(C)C(C)=O)[C@H]2O)CC=C1C [I-i, (5S,6R)-5-[N-methyl(acetamido)]-6-hydroxypolyangioic acid] | >8 | >8 | >8 | 32 | >8 | >32 | >8 | >8 | – | – | – | – | – | – | – | – | –
CCCN(C)[C@H]1C[C@@H](CC(=O)O)O[C@@H](/C=C/[C@H]2[C@H](C)[C@@H]2/C=C/[C@@H](C)/C=C(\C)[C@H]2CC=C(C)[C@@H](CC)O2)[C@@H]1O [I-t, (5S,6R)-5-(N-propyl-methylamino)-6-hydroxypolyangioic acid] | 1.25 | 2.82 | 1.41 | 2.25 | 1.58 | 2.25 | 2 | 11.31 | <0.19 | <0.19 | >12.5 | >12.5 | >12.5 | 0.5 (≈ 0.944 µM) | 1 (≈ 1.89 µM) | 0.5 (≈ 0.944 µM) | –
CCN[C@H]1C[C@@H](CC(=O)O)O[C@@H](/C=C/[C@H]2[C@H](C)[C@@H]2/C=C/[C@@H](C)/C=C(\C)[C@H]2CC=C(C)[C@@H](CC)O2)[C@@H]1O [I-mm, (5S,6R)-5-(ethylamino)-6-hydroxypolyangioic acid] | 0.79 | 0.7 | 1.41 | 1.28 | 1.25 | 0.93 | 0.79 | 2.82 | <0.19 | <0.19 | >12.5 | >12.5 | >12.5 | 0.125 (≈ 0.249 µM) | 0.25 (≈ 0.498 µM) | 0.0625 (≈ 0.125 µM) | –
CC[C@H]1O[C@@H](/C(C)=C/[C@H](C)/C=C/[C@H]2[C@@H](C)[C@@H]2/C=C/[C@@H]2O[C@H](CC(=O)O)C[C@H](NC3CCCC3)[C@H]2O)CC=C1C [I-d, (5S,6R)-5-(cyclopentylamino)-6-hydroxypolyangioic acid] | 2.51 | 2.82 | 4 | 8.0 | 3.17 | 8.0 | 2.51 | 8 | <0.19 | <0.19 | >12.5 | >12.5 | >12.5 | – | – | – | –
CC[C@H]1O[C@@H](/C(C)=C/[C@H](C)/C=C/[C@H]2[C@@H](C)[C@@H]2/C=C/[C@@H]2O[C@H](CC(=O)O)C[C@H](N(C)Cc3ncc[nH]3)[C@H]2O)CC=C1C [I-y, (5S,6R)-5-(N-(2-imidazolyl)methyl-methylamino)-6-hydroxypolyangioic acid] | – | 4 | – | 8.5 | 3.17 | 9 | 2.51 | 4.18 | <0.19 | <0.19 | 3.13 (≈ 5.51 µM) | >12.5 | >12.5 | 0.5 (≈ 0.881 µM) | 1 (≈ 1.76 µM) | 1 (≈ 1.76 µM) | –
C=CCNC(=O)N(C)[C@H]1C[C@@H](CC(=O)O)O[C@@H](/C=C/[C@H]2[C@H](C)[C@@H]2/C=C/[C@@H](C)/C=C(\C)[C@H]2CC=C(C)[C@@H](CC)O2)[C@@H]1O [I-q, (5S,6R)-5-(3-allyl-1-methylureido)-6-hydroxypolyangioic acid] | 12.69 | >8 | >8 | 16 | >8 | 32 | >8 | >8 | – | – | – | – | – | – | – | – | –
CC[C@H]1O[C@@H](/C(C)=C/[C@H](C)/C=C/[C@H]2[C@@H](C)[C@@H]2/C=C/[C@@H]2O[C@H](CC(=O)O)C[C@H](NC)[C@H]2O)CC=C1C [Ambruticin VS-4, (5S,6R)-5-(methylamino)-6-hydroxypolyangioic acid, reference compound] | – | – | – | 0.60 | – | 0.47 | – | – | – | – | – | – | – | – | – | – | MIC2 H. capsulatum 05-959 (Histoplasma capsulatum): ≦0.15 μg/mL; MIC2 H. capsulatum 05-1097 (Histoplasma capsulatum): ≦0.15 μg/mL; MIC2 H. capsulatum 05-1159 (Histoplasma capsulatum): ≦0.15 μg/mL; MIC2 B. dermatitidis 05-106 (Blastomyces dermatitidis): ≦0.15 μg/mL; MIC2 B. dermatitidis 05-186 (Blastomyces dermatitidis): ≦0.15 μg/mL; MIC2 B. dermatitidis 05-1291 (Blastomyces dermatitidis): ≦0.15 μg/mL; MIC2 C. immitis 05-469 (C. immitis): ≦0.15 μg/mL; MIC2 C. immitis 05-955 (C. immitis): ≦0.15 μg/mL; MIC2 C. immitis 05-1387 (C. immitis): ≦0.15 μg/mL
CCC(=O)N[C@H]1C[C@@H](CC(=O)O)O[C@@H](/C=C/[C@H]2[C@H](C)[C@@H]2/C=C/[C@@H](C)/C=C(\C)[C@H]2CC=C(C)[C@@H](CC)O2)[C@@H]1O [I-l, (5S,6R)-5-propionamido-6-hydroxypolyangioic acid] | 0.79 | 1.41 | 2.82 | 8 | 1.58 | 16 | 0.79 | 5.66 | – | – | – | – | – | – | – | – | –
CCCCN(C)[C@H]1C[C@@H](CC(=O)O)O[C@@H](/C=C/[C@H]2[C@H](C)[C@@H]2/C=C/[C@@H](C)/C=C(\C)[C@H]2CC=C(C)[C@@H](CC)O2)[C@@H]1O [I-u, (5S,6R)-5-(N-butyl-methylamino)-6-hydroxypolyangioic acid] | 3.17 | 5.65 | 2.82 | 4.25 | 3.17 | 4.5 | 4 | 11.31 | <0.19 | <0.19 | >12.5 | >12.5 | >12.5 | 1 (≈ 1.84 µM) | 2 (≈ 3.68 µM) | 2 (≈ 3.68 µM) | –
CC[C@H]1O[C@@H](/C(C)=C/[C@H](C)/C=C/[C@H]2[C@@H](C)[C@@H]2/C=C/[C@@H]2O[C@H](CC(=O)O)C[C@H](N(C)CC)[C@H]2O)CC=C1C [I-a, (5S,6R)-5-(N-ethyl-methylamino)-6-hydroxypolyangioic acid] | 2 | 1.41 | 4 | 2.0 | 2 | 2.0 | 2.51 | 5.65 | – | – | – | – | – | 1 (≈ 1.94 µM) | 2 (≈ 3.88 µM) | 2 (≈ 3.88 µM) | –
CC[C@H]1O[C@@H](/C(C)=C/[C@H](C)/C=C/[C@H]2[C@@H](C)[C@@H]2/C=C/[C@@H]2O[C@H](CC(=O)N3CCC3)C[C@H](N(C)C)[C@H]2O)CC=C1C [I-pp, (5S,6R)-1-(azetidin-1-yl)-5-dimethylamino-6-hydroxypolyangi-1-one] | – | – | – | 4 | – | 2 | – | – | – | – | – | – | – | – | – | – | MIC0 Ti ([1]; Trichophyton interdigitale (3 strains), 95% growth inhibition): 5.03 µg/mL; MIC0 Mc (Microsporum canis; Microsporum canis (2 strains), 95% growth inhibition): 1 µg/mL; MIC0 Ef (Epidermophyton floccosum; Epidermophyton floccosum (2 strains), 95% growth inhibition): 2.82 µg/mL; MIC0 Tr (Trichophyton rubrum; Trichophyton rubrum (3 strains), 95% growth inhibition): ¼; MIC0 Mg (Microsporum gypseum; Microsporum gypseum (3 strains), 95% growth inhibition): 2.51 µg/mL; MIC0 Tm ([2]; Trichophyton mentagrophytes (2 strains), 95% growth inhibition): 4 µg/mL
CC[C@H]1O[C@@H](/C(C)=C/[C@H](C)/C=C/[C@H]2[C@@H](C)[C@@H]2/C=C/[C@@H]2O[C@H](CC(=O)O)C[C@H](NC3CCC3)[C@H]2O)CC=C1C [I-jj, (5S,6R)-5-(cyclobutylamino)-6-hydroxypolyangioic acid] | 2.51 | 8 | 5.65 | 6.67 | 3.17 | 5.33 | 1.25 | >8 | – | – | – | – | – | 0.125 (≈ 0.237 µM) | 2 (≈ 3.79 µM) | 2 (≈ 3.79 µM) | –
